Reference: ChEMBL document CHEMBL1201862, “PubChem BioAssay data set” (2004)
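Method: 48-hour compound exposure of cells in 96-well plates, five concentrations, linear interpolation of endpoints. At the GI50, growth is halved.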 Activity calls are given as the source filed them. No stated cut-off is given here; in the data, active = GI50 up to about 1.1 µM and inactive = higher.

Columns and labels:
Assay in all cases: growth of human tumour cells (NCI), 48 h
SNB-75 = system: SNB-75
MDA-MB-231 = system: MDA-MB-231
SF-295 = system: SF-295
HOP-62 = system: HOP-62
CAKI-1 = system: CAKI-1
ACHN = system: ACHN
M14 = system: M14
DU-145 = system: DU-145
786-0 = system: 786-0
BT-549 = system: BT-549
LOX IMVI = system: LOX IMVI
A549 = system: A549
UACC-257 = system: UACC-257
NCI-H226 = system: NCI-H226
Hs-578T = system: Hs-578T
MDA-MB-435 = system: MDA-MB-435
EKVX = system: EKVX
SK-MEL-2 = system: SK-MEL-2
OVCAR-4 = system: OVCAR-4
MCF7 = system: MCF7

Measured: GI50

CC(=O)N1c2ccccc2[C@H]2CCc3c([nH]c4ccccc34)[C@H]21
inactive: SNB-75 18.4 µM | MDA-MB-231 11.4 µM | SF-295 13.9 µM | HOP-62 12.6 µM | CAKI-1 15.6 µM | ACHN 16 µM | M14 14.3 µM | DU-145 20.1 µM | 786-0 15 µM | BT-549 11 µM | LOX IMVI 11.6 µM | A549 17.2 µM | UACC-257 31.6 µM | NCI-H226 13.9 µM | Hs-578T 21.9 µM | MDA-MB-435 16.7 µM | EKVX 14.5 µM | SK-MEL-2 19.2 µM

c1ccc(C2(c3ccccc3)S/C(=C3/SC(c4ccccc4)(c4ccccc4)c4ccccc43)c3ccccc32)cc1
inactive: SNB-75 > 100 µM | MDA-MB-231 > 100 µM | SF-295 > 100 µM | OVCAR-4 > 100 µM | HOP-62 > 100 µM | CAKI-1 > 100 µM | ACHN > 100 µM | M14 > 100 µM | DU-145 > 100 µM | 786-0 > 100 µM | BT-549 > 100 µM | LOX IMVI > 100 µM | A549 > 100 µM | UACC-257 > 100 µM | NCI-H226 > 100 µM | Hs-578T > 100 µM | MDA-MB-435 > 100 µM | EKVX > 100 µM | SK-MEL-2 > 100 µM

CC12CC(c3ccccc3O1)C(C(=O)Nc1ccc(F)cc1)C(=O)N2 (stereo not drawn)
inactive: OVCAR-4 51.9 µM | HOP-62 > 100 µM | CAKI-1 > 100 µM | ACHN > 100 µM | M14 > 100 µM | MCF7 > 100 µM | DU-145 > 100 µM | 786-0 > 100 µM | BT-549 38.5 µM | LOX IMVI > 100 µM | A549 91 µM | UACC-257 81.8 µM | Hs-578T > 100 µM | MDA-MB-435 > 100 µM | EKVX 45.2 µM | SK-MEL-2 > 100 µM

CC(O)[C@@]1(c2ccccc2)CC2(CCN(C)CC2)O[C@H]1C (stereo partly drawn)
inactive: SNB-75 > 100 µM | MDA-MB-231 > 100 µM | SF-295 > 100 µM | OVCAR-4 98.6 µM | HOP-62 > 100 µM | CAKI-1 > 100 µM | ACHN > 100 µM | M14 > 100 µM | MCF7 > 100 µM | DU-145 > 100 µM | 786-0 > 100 µM | LOX IMVI > 100 µM | A549 > 100 µM | UACC-257 > 100 µM | NCI-H226 > 100 µM | Hs-578T > 100 µM | MDA-MB-435 > 100 µM | EKVX > 100 µM | SK-MEL-2 > 100 µM

COc1nc(C)nc2c1ncn2Cc1ccccc1
inactive: SNB-75 > 100 µM | MDA-MB-231 > 100 µM | SF-295 > 100 µM | OVCAR-4 > 100 µM | HOP-62 > 100 µM | CAKI-1 66.2 µM | ACHN > 100 µM | M14 > 100 µM | MCF7 58.9 µM | DU-145 > 100 µM | 786-0 > 100 µM | LOX IMVI > 100 µM | A549 > 100 µM | UACC-257 > 100 µM | NCI-H226 > 100 µM | Hs-578T 99.8 µM | MDA-MB-435 > 100 µM | EKVX 80.7 µM

CCOc1cc2c(cc1O)/C(=N/NS(=O)(=O)c1ccc(C)cc1)C[C@@H]1[C@@H]2CC[C@]2(C)[C@@H](O)CC[C@@H]12
inactive: SNB-75 5.3 µM | MDA-MB-231 8.51 µM | SF-295 3.15 µM | OVCAR-4 4.78 µM | CAKI-1 12.6 µM | ACHN 10.5 µM | M14 3.21 µM | MCF7 4.02 µM | 786-0 9.73 µM | BT-549 3.7 µM | LOX IMVI 8.43 µM | A549 6.46 µM | UACC-257 58.2 µM | NCI-H226 6.01 µM | Hs-578T 7.57 µM | EKVX 13 µM | SK-MEL-2 3.94 µM

CCOC(=O)/C(=C\NC(N)=S)C(=O)c1ccccc1
inactive: SNB-75 > 100 µM | MDA-MB-231 > 100 µM | SF-295 > 100 µM | OVCAR-4 > 100 µM | HOP-62 > 100 µM | CAKI-1 > 100 µM | ACHN > 100 µM | M14 > 100 µM | MCF7 > 100 µM | DU-145 > 100 µM | 786-0 > 100 µM | BT-549 > 100 µM | LOX IMVI > 100 µM | A549 > 100 µM | UACC-257 > 100 µM | NCI-H226 > 100 µM | MDA-MB-435 > 100 µM | EKVX > 100 µM | SK-MEL-2 > 100 µM

COC(=O)CCN1CCN(CCO)CC1C (stereo not drawn)
inactive: SNB-75 > 10 µM | MDA-MB-231 > 10 µM | SF-295 > 10 µM | OVCAR-4 > 10 µM | HOP-62 > 10 µM | CAKI-1 > 10 µM | ACHN > 10 µM | M14 > 10 µM | MCF7 > 10 µM | DU-145 > 10 µM | 786-0 > 10 µM | LOX IMVI > 10 µM | A549 > 10 µM | UACC-257 > 10 µM | NCI-H226 > 10 µM | Hs-578T > 10 µM | MDA-MB-435 > 10 µM | EKVX > 10 µM | SK-MEL-2 > 10 µM

O=C(O)CCC(c1ccccc1)(c1ccccc1)c1ccccc1
inactive: MDA-MB-231 43.6 µM | SF-295 50.7 µM | OVCAR-4 34.5 µM | HOP-62 34.8 µM | ACHN 31 µM | M14 33 µM | MCF7 17.7 µM | DU-145 17.2 µM | 786-0 62.2 µM | LOX IMVI 45.1 µM | A549 28.9 µM | UACC-257 37 µM | NCI-H226 88.5 µM | Hs-578T 29.9 µM | MDA-MB-435 33 µM | EKVX 36 µM | SK-MEL-2 22.9 µM

Cc1ccc(/C=C2\CCCCCC2=O)cc1
inactive: SNB-75 > 100 µM | MDA-MB-231 > 100 µM | SF-295 > 100 µM | OVCAR-4 > 100 µM | HOP-62 > 100 µM | CAKI-1 > 100 µM | ACHN > 100 µM | M14 > 100 µM | DU-145 > 100 µM | 786-0 > 100 µM | BT-549 > 100 µM | LOX IMVI > 100 µM | A549 > 100 µM | UACC-257 > 100 µM | NCI-H226 > 100 µM | Hs-578T > 100 µM | MDA-MB-435 > 100 µM | EKVX > 100 µM | SK-MEL-2 > 100 µM

C=C(C)[C@@H]1CC[C@]2(CO)CC[C@]3(C)[C@H](CC[C@@H]4[C@@]5(C)CC[C@H](O)C(C)(C)[C@@H]5CC[C@]43C)[C@@H]12 [BETULIN]
inactive: SNB-75 12.7 µM | MDA-MB-231 33.3 µM | SF-295 14 µM | HOP-62 16.7 µM | CAKI-1 15.3 µM | ACHN 11.1 µM | M14 51.1 µM | MCF7 19.9 µM | DU-145 84.3 µM | 786-0 13.6 µM | BT-549 17.6 µM | LOX IMVI 14.6 µM | A549 9.35 µM | UACC-257 23.3 µM | NCI-H226 39 µM | MDA-MB-435 19.5 µM | EKVX 25.6 µM
